Assay results published in US9061994B1, “Materials and methods useful to induce vacuolization, cell death, or a combination thereof” (The University of Toledo, priority 2011, dated 2015).
“Also recorded” adds a separate entry of the source. Where two headings read alike, the source gives them in different places.

Experiments:
Format in all cases: cell-based, human
U251 glioblastoma cells [1] = experiment: Sulforhodamine B (SRB) growth inhibition assay; conditions: for GI50: Homo sapiens; for growth inhibitory (GI) activity, in words: 48 h SRB, Table 1, Table 2 (FIG. 64), FIG. 63
Experimental: Cells experiencing methuosis initially undergo extreme cytoplasmic vacuolization which can be readily assessed by phase contrast microscopy. As viability is compromised (usually between 24-48 h), the cells detach from the culture surface and lose membrane integrity. […] Although methuosis can occur in a broad spectrum of human tumor cell lines, SAR studies were carried out with U251 glioblastoma cells. Therefore, this cell line was used in the present evaluation.
Total protein in adherent cells was measured by the sulforhodamine B (SRB) colorimetric assay, following standard procedures for anticancer drug screening used by the U.S. National Cancer Institute. […] On the day after plating, four wells were assayed to establish a pre-drug (time-0) baseline. Test compounds were diluted as described above and added to the remaining wells. The medium and compounds were replenished after 24 hr. SRB assays were performed at a 48 h endpoint as described, using a SpectraMax Plus 384 plate reader (Molecular Devices, Sunnyvale, Calif.) to determine absorbance at 515 nm.
Cells were seeded in 96-well plates as described in the methods. After 24 h, each compound was added at the indicated concentrations and SRB assays were performed after an additional 48 h. Each point represents the mean±SD of values from four wells. The dotted line on each graph indicates the average absorbance of four wells sampled at time-0 (i.e., the time that the compounds were added).
The human U251 glioblastoma cell line was obtained from the DCT Tumor Repository (National Cancer Institute, Fredrick, Md.). […] All test compounds were dissolved in DMSO and serially diluted in DMSO so that the desired final drug concentrations could be achieved by making a 1/1000 dilution into the culture medium. One day after plating, four wells were assayed to establish a pre-drug (time-0) baseline. At the same time, fresh medium containing test compounds was added to the remaining wells. Control wells received DMSO alone. SRB assays were performed at a 48 h endpoint. To minimize the impact of potential variations in stability among the compounds, medium with test compound was replenished after the first 24 h.

U251 glioblastoma cells [2] = experiment: Trypan blue dye-exclusion viability assay; conditions: for cell viability, in words: 10 μM, 2 days; for viability at 10 µM: Homo sapiens, U-251, 48 h, each compound at 10 μM for 2 days, mean ± SD of three cultures
Experimental: To directly compare the effects of different compounds on cell viability, the trypan blue dye-exclusion assay was utilized to distinguish live (unstained) from dead (blue) cells. U251 cells were seeded in 35 mm diameter dishes at a density of 100,000 cells/dish. Twenty-four hours later, test compounds were added in fresh medium at a final concentration of […] received an equivalent volume of vehicle (DMSO). […] At the end of the incubation, floating and adherent cells were combined and collected by centrifugation. Cells were washed with Hank's balanced salt solution (HBSS) and incubated with 0.2% trypan blue solution (Sigma, St. Louis, Mo.) for 5 min at room temperature. The percentage of dead cells was determined by light microscopy using a hemocytometer. Three separate cultures were assayed for each compound.
Cells were seeded in 35 mm dishes and treated for 48 h with compounds at a final concentration of […] blue dye-exclusion assays were performed as described in the methods. Values are the mean±SD of separate assays performed on three parallel cultures.

U251 glioblastoma cells [3] = experiment: Cell morphology / vacuolization by phase-contrast microscopy
U251 glioblastoma cells [4] = experiment: SAR comparison of methuosis induction (vacuolization, MTT viability, colony formation) versus MIPP; conditions: 10 μM, morphology 24 h and 48 h, MTT 48 h, colony formation (FIGS. 36, 48)
Source text: Analogs based on the α,β-unsaturated ketone core were designed from Claisen-Schmidt condensations between indole-3-carboxaldehydes and aromatic ketones. Such aldol condensations are known to proceed well employing secondary amines as catalysts. Initially, the orientation of the pyridine nitrogen was investigated.

[5] = concentration not singled out ([…] and 10 μM or as in figure)

| Compound | GI50 (U251 glioblastoma cells [1]; U-251, 48 h, read-out: GI50) [µM] | viability at 10 µM (U251 glioblastoma cells [2]) [%] | cell morphology / vacuolization (U251 glioblastoma cells [3]; 10 μM) | methuosis-inducing activity compared with compound 2 (MIPP) (U251 glioblastoma cells [4]) | other results |
| --- | --- | --- | --- | --- | --- |
| CCCc1[nH]c2ccc(OC)cc2c1/C=C/C(=O)c1ccncc1 [107b, trans-3-(5-methoxy-2-propylindol-3-yl)-1-(4-pyridinyl)-2-propen-1-one] | 15.3 | 83.9 ± 2.3 | extensively vacuolated |  | cell viability, in words (U251 glioblastoma cells [2]): only minimally affected |
| COc1ccc2[nH]c(C(C)C)c(/C=C/C(=O)c3ccncc3)c2c1 [107c, trans-3-(2-isopropyl-5-methoxyindol-3-yl)-1-(4-pyridinyl)-2-propen-1-one] | > 20 | 78.8 ± 1.1 | extensively vacuolated |  | cell viability, in words (U251 glioblastoma cells [2]): only minimally affected |
| COc1ccc2[nH]c(CC(C)C)c(/C=C/C(=O)c3ccncc3)c2c1 [107d, trans-3-(2-isobutyl-5-methoxyindol-3-yl)-1-(4-pyridinyl)-2-propen-1-one] | 16.6 | 87.4 ± 1.5 | extensively vacuolated |  | cell viability, in words (U251 glioblastoma cells [2]): only minimally affected |
| CCCCOc1ccc2[nH]c(C)c(/C=C/C(=O)c3ccncc3)c2c1 [402d, trans-3-(5-butoxy-2-methylindole-3-yl)-1-(4-pyridinyl)-2-propen-1-one] |  |  |  |  | growth inhibitory (GI) activity, in words (U251 glioblastoma cells [1]; U251): markedly reduced; also recorded: complete lack of GI activity; cell morphology / vacuolization (U251 glioblastoma cells [3]; [5]): produced much fewer and smaller vacuoles and had little effect on cell density |
| Cc1[nH]c2ccc(N)cc2c1/C=C/C(=O)c1ccncc1 [402g, trans-3-(5-amino-2-methylindol-3-yl)-1-(4-pyridinyl)-2-propen-1-one] |  |  | did cause vacuolization after 48 h |  | growth inhibitory (GI) activity, in words (U251 glioblastoma cells [1]; U251): no GI activity in the concentration range tested |
| NCc1ccc2[nH]cc(/C=C/C(=O)c3ccncc3)c2c1 [402i, trans-3-(5-aminomethylindol-3-yl)-1-(4-pyridinyl)-2-propen-1-one] |  |  |  |  | growth inhibitory (GI) activity, in words (U251 glioblastoma cells [1]; U251): completely inactive in both growth inhibition and vacuolization assays; cell morphology / vacuolization (U251 glioblastoma cells [3]; [5]): completely inactive in both growth inhibition and vacuolization assays |
| O=C(/C=C/c1c[nH]c2ccccc12)c1ccccc1 [compound 9, trans-3-(1H-indol-3-yl)-1-phenyl-2-propen-1-one] |  |  |  | relatively ineffective at inducing methuosis compared with MIPP |  |
| O=C(/C=C/c1c[nH]c2ccccc12)c1ccccn1 [compound 10, trans-3-(1H-indol-3-yl)-1-(2-pyridinyl)-2-propen-1-one] |  |  |  | relatively ineffective at inducing methuosis compared with MIPP |  |
| O=C(/C=C/c1c[nH]c2ccccc12)c1cccnc1 [compound 11, trans-3-(1H-indol-3-yl)-1-(3-pyridinyl)-2-propen-1-one] |  |  |  | relatively ineffective at inducing methuosis compared with MIPP |  |
| COc1ccc2[nH]cc(/C=C/C(=O)c3ccncc3)c2c1 [compound 13, trans-3-(5-methoxy-1H-indol-3-yl)-1-(4-pyridinyl)-2-propen-1-one] | 18.6 | 91.2 ± 0.7 | extensively vacuolated |  | cell viability, in words (U251 glioblastoma cells [2]): only minimally affected |
| O=C(/C=C/c1c[nH]c2ccc(O)cc12)c1ccncc1 [compound 15, trans-3-(5-hydroxy-1H-indol-3-yl)-1-(4-pyridinyl)-2-propen-1-one] |  |  |  | greatly reduced activity of the compound in all of the assays |  |
| COc1ccc2[nH]cc(/C=C/C(=O)c3cccnc3)c2c1 [compound 16, trans-3-(5-methoxy-1H-indol-3-yl)-1-(3-pyridinyl)-2-propen-1-one] |  |  |  | Loss of activity |  |
| COc1ccc2[nH]cc(/C=C/C(=O)c3cnccn3)c2c1 [compound 17, trans-3-(5-methoxy-1H-indol-3-yl)-1-(pyrazine)-2-propen-1-one] |  |  |  | Loss of activity |  |
| COc1ccc2c(c1)c(/C=C/C(=O)c1ccncc1)cn2C [compound 20, trans-3-(5-methoxy-1-methyl-Indol-3-yl)-1-(4-pyridinyl)-2-propen-1-one] |  |  |  | induced some cytoplasmic vacuolization but had modest effects on cell viability |  |
| O=C(/C=C/c1c[nH]c2ccc(O)cc12)c1ccncc1 [compound 21, trans-3-(5-hydroxy-1H-indol-3-yl)-1-(4-pyridinyl)-2-propen-1-one] |  |  |  | marked reduction in activity compared to the 5-methoxy compound 19 |  |
| CCc1[nH]c2ccc(OC)cc2c1/C=C/C(=O)c1ccncc1 [compound 107a, trans-3-(2-ethyl-5-methoxyindol-3-yl)-1-(4-pyridinyl)-2-propen-1-one] | 3.2 | 34.6 ± 1.1 | morphological effects indistinguishable from those observed with the same concentration of MOMIPP |  | GI50 (U251 glioblastoma cells [1]; U-251, U251, dose-response curves repeated six more times (Table 1 footnote g), read-out: GI50, means (±SD) for all seven determinations): 2.8 µM; growth inhibitory (GI) activity, in words (U251 glioblastoma cells [1]; U251): not statistically different from the MOMIPP; cell viability, in words (U251 glioblastoma cells [2]): substantial loss of cell viability |
| COc1ccc2[nH]c(C)c(/C=C/C(=O)c3cccnc3)c2c1 [meta-MOMIPP, trans-3-(5-methoxy-2-methylindol-3-yl)-1-(3-pyridinyl)-2-propen-1-one] | 16.9 | 96.2 ± 1.3 | did not accumulate vacuoles |  |  |
| trans-3-[5-((4-carboxyphenyl)-methoxy)-1H-Indol-3-yl)]-1-(4-pyridinyl)-2-propen-1-one [compound 27] |  |  |  | neither compound 26 nor compound 27 induced methuosis |  |
| trans-3-[5-((4-methylbenzoate)methoxy)-1H-Indol-3-yl)]-1-(4-pyridinyl)-2-propen-1-one [compound 26] |  |  |  | neither compound 26 nor compound 27 induced methuosis |  |
